Source: the NIST ThermoML archive (doi:10.1016/j.fluid.2006.08.020)

Columns and labels:
[1] = 298.1 K; 101.33 kPa; Liquid; Vibrating tube method
[2] = osmotic coefficient (dimensionless); mn = molality of the nth substance listed, in mol/kg; settings: 298.15 K, Liquid, isopiestic method

CO [methanol]
Settings	mass density [kg/m3]
[1]	787.5

CO [methanol] + CC(=O)Nc1ccc(O)cc1
[2]
Settings	osmotic coefficient
m1 = 0.0931	0.998
m1 = 0.1398	1.001
m1 = 0.2163	1.001
m1 = 0.3514	1
m1 = 0.5633	1.002
m1 = 1.006	1.009
m1 = 1.236	1.01
m1 = 1.4	1.015
m1 = 1.578	1.017
m1 = 1.866	1.02
m1 = 2.465	1.027
m1 = 2.762	1.033
m1 = 3.096	1.041
m1 = 3.56	1.055
m1 = 3.974	1.068
m1 = 4.175	1.075
m1 = 4.812	1.099
m1 = 5.316	1.12
m1 = 6.17	1.159
m1 = 6.418	1.171
m1 = 6.833	1.19
m1 = 7.073	1.21
